Assay [1] relates to ZEB1 expression in HEY cells. Kind of assay: Western blot for pFAK, FAK and ZEB1 after FAK inhibitor treatment. The assay is classed as cell-based, human. To be noted: normal growth medium, 24 hours, vs DMSO. As to the method:
FIGS. 9A-9J. CSPG4 expression is associated with epithelial-to-mesenchymal plasticity, mediated by CSPG4 associated changes in ZEB1 expression. FIG. 9A) The indicated cell lines both Mock(M) and CRISPR(C) were cultured separately in spheroid formation assays for 7 days, collected and analyzed by western blot for various EMT markers. FIG. 9B) Western blot for Zebl and CSPG4 expression in EOC cell lines treated with siRNA for ZEB1 or control for 48 hours. FIG. 9C) Western blot for pFAK, FAK and ZEB1 in HEY cells treated with either DMSO (control) or FAK inhibitor PND-1186 at the indicated concentrations in normal growth medium for 24 hours. FIG. 9D) Spheroid formation in methylcellulose of EOC cell lines treated with siRNA to ZEB1 or control for 7 days. Bars represent spheroid counts from five random fields/well from triplicate wells+/−S.D. *p<0.02 by students t-test with Welch's correction. n=3 from 3 individual experiments. FIG. 9E) Invasion assay of EOC cells treated with ZEB1 siRNA or control siRNA (methods). *p<0.002 by student's t-test with Welch's correction. n=3 from 3 individual experiments. FIGS. 9F and 9G) Cells were transfected with control or ZEB1 siRNA overnight and plated in the cisplatin cytotoxicity assay the following day. MTS data was collected after 4 days of cisplatin treatment. […]
A general note: A western blot detects proteins with antibodies after separation by electrophoresis.

Assay [2] concerns ES-2, HEY, A2780 mock and CSPG4 knockout cells. Kind of assay: Cisplatin cytotoxicity assay (MTS). The assay is classed as cell-based, human. As to conditions: CSPG4 knockout vs mock, three cell lines (A2780, HEY, ES-2), 96 hours of treatment. The source says: FIGS. 5A-5G. CSPG4 knockout results in significant loss of invasive capacity and cisplatin resistance in multiple ovarian tumor cell lines. Invasion assays using control (Mock) and CSPG4 knockout (CRISPR) HEY cells (FIG. 5A) or A2780 cells (FIG. 5B). Bars represent the total number of invading cells from five random fields/well from triplicate wells, +/−S.D., from three replicate experiments, n=6. P values determined by student's t-test with Welch's correction. […] Lanes: 1—ES-2 Parent, 2—ES-2 Mock, 3—ES-2 CSPG4 knockout, 4—ES-2 CSPG4 Rescue. […] Invasive capacity is rescued in the ES-2 CRISPR knockout line with CSPG4 re-expression (Rescue). P values determined by student's t-test with Welch's correction. FIGS. 5E-G show the cell viability of mock and knockout (CRISPR) A2780 cells (FIG. 5E), mock and knockout HEY cells (FIG. 5F), and mock, knockout and rescue ES-2 cells (FIG. 5G) treated with increasing concentrations of cisplatin. Dose response curves were plotted as the percent of MTS staining vs. untreated cells for each cell line +/−s.e.m. from three replicate experiments (n=9). The phenotype was rescued by re-expression of CSPG4 in the ES-2 CRISPR cells (ES-2 Rescue, in FIG. 5G).
Cisplatin cytotoxicityAssay: Cisplatin stock (3.3 mM) was diluted with growth medium to the required concentrations before each experiment. […] Absorbance at 570 nm was collected on a Tecan 200 plate reader. […]

SMILES strings stand for the structures.

The record followed here is patent US20250313648A1, “Binders of Chondroitin Sulfate Proteoglycan (CSPG4) Polypeptides” (Regents of the University of Minnesota, priority 2021, published 2025).

Consider `CNC(=O)c1ccccc1Nc1cc(Nc2ccc(N3CCOCC3)cc2OC)ncc1C(F)(F)F` [PND-1186], for which the ZEB1 expression result in assay [1] is “inhibited”. On to `N.N.[Cl][Pt][Cl]` [cisplatin, Cisplatin], for which the “reduction in the IC50 for the knockout cell lines” value in assay [2] is on record as 3.6-to-8.8 fold.
